Results on twelve molecules are retold here after article PMC4452637, “Identification of positron emission tomography (PET) tracer candidates by prediction of the target-bound fraction in the brain” (EJNMMI Research, 2014).

One data set deals with 5HT1b. Set-up: method as in ref 10 (Additional file 1). Conditions: literature value; ref 10 (Additional file 1); cited from earlier work.
A further data set relates to GABA. The note with it: non-functioning tracer: corresponds to arbitrarily assigned low ftb 0.09, not from PET data; blank in Table S1.
Details of data set [1]: method as in ref 10 (a number printed in a supplementary file, which may have a reference list of its own: not looked up in the article's list). Conditions: unbound fraction in homogenized brain tissue, reported; cited from earlier work.
Data set [2] is described as follows: Unbound fraction in brain homogenate (fu,brain); Vu,brain calculated from it with pH-partition model. Conditions: calculated from reported fu,brain and tracer pKa with pH-partition model (tracers with fu,brain tabulated, footnote h of Table S1).
Experimental: The unbound volume of distribution in the brain (Vu,brain) describing the extent of non-specific partitioning was determined for 31 tracers using a previously described high-throughput brain slice method [11].
For another data set, the target named is NK1. Set-up: method as in ref 36 (Additional file 1). Conditions: literature value; ref 36 (Additional file 1); cited from earlier work.
The next data set has as its target H3. Also on record: method as in ref 38 (Additional file 1). The note with it: literature value; ref 38 (Additional file 1); cited from earlier work.
A further data set concerns the target CB1r. Also on record: method as in ref 48 (Additional file 1). Conditions: literature value; ref 48 (Additional file 1); cited from earlier work.
Data set [3] addresses Sigma. Set-up: method as in ref 77 (Additional file 1). The note with it: literature value; ref 77 (Additional file 1); cited from earlier work.
Data set [4] has as its system Sigma. The data set is described as follows: PET imaging of specific target binding (BPND, tracer functionality). Format: in vivo. The note with it: non-functioning tracer: corresponds to arbitrarily assigned low ftb 0.09, not from PET data; blank in Table S1.
The target in another data set is D1. Also on record: method as in ref 52, 53 (Additional file 1). The note with it: literature value; 53 (Additional file 1); cited from earlier work.
The target of a further data set is D2/D3. Set-up: method as in ref 59 (Additional file 1). The note with it: literature value; ref 59 (Additional file 1); cited from earlier work.
Another data set concerns the target nAChr a4b2. Also on record: method as in ref 2 (Additional file 1). The note with it: literature value; ref 2 (Additional file 1); cited from earlier work.
A further data set has as its target 5HT2a. Set-up: method as in ref 7 (Additional file 1). Conditions: literature value; ref 7 (Additional file 1); cited from earlier work.
Another data set concerns the target 5HT1a. Also on record: method as in ref 50 (Additional file 1). The note with it: literature value; ref 50 (Additional file 1); cited from earlier work.

The structures appear in SMILES notation.

The Kd is the concentration at which binding is half-saturated. Turning to `Cc1ccc(N2CCN(C)CC2)c2oc(C(=O)Nc3ccc(N4CCOCC4)cc3)cc(=O)c12` [[^11C]AZ10419369], the Kd on 5HT1b is 370 pM. For `[11CH3]N1C(=O)CN=C(c2ccccc2)c2cc(Cl)ccc21` [[^11C]Diazepam], the “BP ND” value with GABA was determined as 0.1.

`COc1ccc(-n2nnnc2C(F)(F)F)cc1CN[C@H]1CCCN[C@H]1c1ccccc1` [[^11C]GR205171]: the “fu,brain” value in data set [1] is 0.05. Also, in [2], the “V u,brain” value is on record as 57 mL/g brain. Further, at NK1, the Kd is 16 pM. Turning to `CNC(=O)c1ccc(Oc2ccc3c(c2)CCN(C2CCC2)CC3)nc1` [[^11C]GSK189254A], on H3, the dissociation constant Kd was 80 pM.

Consider `COc1cccc([C@H]2C[C@@H](N[C@H](C)c3ccccc3)C(=O)N2c2ccc(C(F)(F)F)cc2)c1` [[^11C]MePPEP], for which the Kd on CB1r was 100 pM. Take `CCCN(CCC)CCc1ccc(OC)c(OCCc2ccccc2)c1` [[^11C]NE100]: on Sigma [3], the dissociation constant (Kd) was 1200 pM. With `CCCN(CCC)CCc1ccc(O[11CH3])c(OCCc2ccccc2)c1` [[^11C]NE100], in [1], the “fu,brain” value is recorded as 0.03. Also, the “V u,brain” value in data set [2] was 96 mL/g brain. Besides, the “BP ND” value in the data set with Sigma [4] was determined as 0.1.

As for `CN1CCc2cc(Cl)c(O)cc2[C@@H](c2cccc3ccoc23)C1` [[^11C]NNC112], the equilibrium dissociation constant (Kd) on D1 is 180 pM. On to `CCCN1CCO[C@@H]2c3cc(O)ccc3CCC21` (stereo partly shown) [[^11C]PHNO], for which the Kd at D2/D3 was 560 pM.

In the case of `Fc1ncccc1OC[C@@H]1CCN1` [[^18 F]2-FA-85380], the Kd on nAChr a4b2 was 145 pM.

`O=C(c1ccc(F)cc1)C1CCN(CCn2c(=S)[nH]c3ccccc3c2=O)CC1` [[^18 F]Altanserin]: the dissociation constant Kd at 5HT2a was 320 pM. As to `COc1ccccc1N1CCN(CCN(C(=O)c2ccc(F)cc2)c2ccccn2)CC1` [[^18 F]MPPF], the Kd on 5HT1a is 3300 pM.
